Test results taken from patent publication US20230173005A1 (ASIA UNIVERSITY, priority 2021, published 2023).

Legend:
[1] = test system: superoxide dismutase (SOD); test: Western blotting of kidney, SOD; format: in vivo, mouse
Description: (§1) Male ICR mice aged 7-8 weeks (each weighing about 30-32 grams) were divided into 6 groups, 10 mice per group, and the six groups correspond to a control group, an induction group, a positive control group and low-medium-high dose brown Flammulina velutipes water extract groups. The entire process was limited to 10 days. […] Both of the induction and the sacrifice were performed in a fasting state.
(§2) The administration was performed for 10 consecutive days while feeding at around 10 a.m. Normal food was provided during the above period. […] On the day before induction, all […] groups were treated on an empty stomach.
(§3) The kidneys were homogenized with a PBS solution and diluted 10 folds to form a homogeneous solution, and the homogeneous solution was centrifuged at 12,000 rpm at 4° C. for 20 minutes. The supernatant was taken to quantify each protein concentration, and treated to have a uniform concentration. A protein was added to a protein dye to form a sample, placed in a drying bath at 100° C., and heated for 5 minutes. Then, the sample was injected into 10%, 15% or 8% of colloid prepared with 40% of acrylamide/bisN,N-methylenbisacrylamide, in which the ratio of acrylamide to bisN,N-methylenbisacrylamide was 29:1. […]
(§4) After completion of the transfer, blocking was performed for 1 hour using milk. […] In addition, image data were acquired and analyzed by the Image J system.

NO free radicals = test: Nitrite analysis of mouse serum; format: in vivo; conditions: cisplatin 20 mg/Kg i.p.
Description: as §1, §2
Mouse serum was taken by 100 μL each and added to a new 96-well microassay plate. Then, Griess Reagent was added by the same amount of […]. The Griess reagent was obtained by mixing an aqueous solution of N-(1-naphthyl)ethylenediamine with a 1% sulfanilamide solution dissolved in 5% phosphoric acid in the volumetric ratio of 1:1. Thereafter, the absorbance was measured at a wavelength of 540 nm using a microplate spectrometer (Molecular Devices), so that the ability of removing NO free radicals was measured in each group.

Bcl-2 = test: Western blotting of kidney, Bcl-2; format: in vivo, mouse
Description: as §1, §2, §3, §4

LC3B = test: Western blotting of kidney, LC3B; format: in vivo, mouse; conditions: cisplatin 20 mg/Kg i.p. vs control group
Description: as §1, §2, §3, §4

[2] = test system: glutathione peroxidase (GPX1); test: Western blotting of kidney, GPX1; format: in vivo, mouse
Description: as §1, §2, §3, §4

iNOS = test: Western blotting of kidney, iNOS; format: in vivo, mouse
Description: as §1, §2, §3, §4

p62 = test: Western blotting of kidney, p62; format: in vivo, mouse; conditions: cisplatin 20 mg/Kg i.p. vs control group
Description: as §1, §2, §3, §4

AKT = test: Western blotting of kidney, AKT; format: in vivo, mouse; conditions: cisplatin 20 mg/Kg i.p. vs control group
Description: as §1, §2, §3, §4

IL-1β = test: Cytokine analysis (ELISA), IL-1β; format: in vivo, mouse; conditions: serum ELISA; cisplatin 20 mg/Kg i.p. vs control group
Description: as §1, §2
(§5) After sacrificing the mice to collect corresponding blood, and serum was separated and then diluted 10-fold or 5-fold. TNF-α, IL-6 and IL-1β were analyzed according to the multiple antibody sandwich principle by using BioLegend Company's ELISA kits.
(§6) In a 96-well microassay plate, 100 μL of capture antibody was added to each well, and placed at room temperature overnight. […] Finally, 2 equivalents of 100 μL of sulfuric acid as a stop solution was added, and the change in absorbance at a wavelength of 450 nm was measured with a microplate spectrometer. The concentration of cytokines in serum was additionally calculated.

COX-2 = test: Western blotting of kidney, COX-2; format: in vivo, mouse
Description: as §1, §2, §3, §4

TLR4 = test: Western blotting of kidney, TLR4; format: in vivo, mouse
Description: as §1, §2, §3, §4

PI3K = test: Western blotting of kidney, PI3K; format: in vivo, mouse; conditions: cisplatin 20 mg/Kg i.p. vs control group
Description: as §1, §2, §3, §4

p-NFκB = test: Western blotting of kidney, p-NFκB; format: in vivo, mouse
Description: as §1, §2, §3, §4

IL-6 = test: Cytokine analysis (ELISA), IL-6; format: in vivo, mouse; conditions: serum ELISA; cisplatin 20 mg/Kg i.p. vs control group
Description: as §1, §2, §5, §6

TNF-α = test: Cytokine analysis (ELISA), TNF-α; format: in vivo, mouse; conditions: serum ELISA; cisplatin 20 mg/Kg i.p. vs control group
Description: as §1, §2, §5, §6

Nrf2 = test: Western blotting of kidney, Nrf2; format: in vivo, mouse; conditions: cisplatin 20 mg/Kg i.p. vs control group
Description: as §1, §2, §3, §4

Beclin-1 = test: Western blotting of kidney, Beclin-1; format: in vivo, mouse; conditions: cisplatin 20 mg/Kg i.p. vs control group
Description: as §1, §2, §3, §4

HO-1 = test: Western blotting of kidney, HO-1; format: in vivo, mouse; conditions: cisplatin 20 mg/Kg i.p. vs control group
Description: as §1, §2, §3, §4

BAX = test: Western blotting of kidney, BAX; format: in vivo, mouse
Description: as §1, §2, §3, §4

[3] = test system: mouse model of the acute renal failure induced by cisplatin; test: Measurement on kidney weight/body weight ratio; format: in vivo; conditions: Amifostine 200 mg/kg i.p. 30 min after cisplatin 20 mg/Kg day 7
Description: as §1, §2
Kidneys were removed from the mouse body, and adrenal glands and surrounding fat were removed, washed with saline and then weighed immediately. The weights of the both kidneys were obtained and compared with the weight of the mouse measured on the last day, and the difference between the kidney/weight ratios of the mice was calculated.

catalase = format: in vivo, mouse; conditions: kidney; Amifostine 200 mg/Kg i.p. or WFV 1000 mg/kg oral in advance
Description: as §1, §2, §3, §4

[4] = test system: mouse model of the acute renal failure induced by cisplatin; test: Weight measurement in cisplatin-induced mice; format: in vivo; conditions: Amifostine 200 mg/kg i.p. 30 min after cisplatin 20 mg/Kg day 7
Description: as §1, §2

[5] = cisplatin 20 mg/Kg i.p. vs control group
[6] = Amifostine 200 mg/Kg i.p. or WFV 1000 mg/kg oral in advance
[7] = Amifostine 200 mg/Kg i.p. or high-dose WFV (1000 mg/Kg oral) vs induction group
[8] = Amifostine 200 mg/Kg i.p. or high-dose WFV (1000 mg/Kg oral) vs cisplatin induction group

N.N.[Cl][Pt][Cl] [Cis, cisplatin]
expression level of SOD [1, 5]: decreased | expression level of NO free radicals (nitrite in serum) (NO free radicals): increased remarkably | expression level of Bcl-2 (Bcl-2; [5]): decreased | level of LC3B (LC3B): significantly increased | expression level of GPX1 [2, 5]: decreased | expression level of iNOS (iNOS; [5]): significant differences compared with the control group | level of p62 (p62): significantly increased | expression level of AKT (AKT): significantly increased | concentration of IL-1β (IL-1β): increased | expression level of COX-2 (COX-2; [5]): significant differences compared with the control group | expression level of TLR4 (TLR4; [5]): upward trend | expression level of PI3K (PI3K): significantly increased | expression level of p-NFκB (p-NFκB; [5]): upward trend | concentration of IL-6 (IL-6): increased | concentration of TNF-α (TNF-α): increased | expression level of Nrf2 (Nrf2): significantly increased | level of Beclin-1 (Beclin-1): significantly increased | expression level of HO-1 (HO-1): significantly increased | expression level of apoptogenic protein BAX (BAX; [5]): increased

NCCCNCCSP(=O)(O)O [Ami, Amifostine]
expression level of SOD [1, 6]: not decreased | Kidney weight [3]: 0.55 ± 0.025 g | expression level of Bcl-2 (Bcl-2; [7]): increased | expression level of GPX1 [2, 6]: not decreased | expression level of iNOS (iNOS; [8]): decreased | expression level of COX-2 (COX-2; [8]): decreased | expression level of TLR4 (TLR4; [8]): decreased | expression level of catalase (catalase): not decreased | Body weight After [4]: 36.6 ± 0.18 g | expression level of p-NFκB (p-NFκB; [8]): decreased | expression level of apoptogenic protein BAX (BAX; [7]): significantly decreased
